In series [1] the test system is P. falciparum 3D7 strain, chloroquine sensitive. The series is described as follows: In vitro antimalarial activity screening (SYBR Green I micromethod). It is filed as cell-based. As to conditions: Plasmodium falciparum, 3D7, 48 h incubation, mean of two experiments in triplicate, read-out: P. falciparum 3D7 IC50. The procedure: The SYBR^©GreenI-based micromethod was followed for testing the antimalarial activity of the compounds. Erythrocytic stages of P. falciparum 3D7 strain, chloroquine sensitive, were maintained in RPMI 1640 culture medium supplemented with 0.5% Albumax II at 37 °C in an atmosphere with 5% CO2. […] Next, stock solutions of each compound were prepared in DMSO and diluted in RPMI medium in order to obtain concentrations from 10 to 0.01 µg/mL. […] All compounds and controls were placed in triplicate. The plate was incubated under the same conditions. After 48 h, the plate was removed from the incubator and frozen for at least 1 h at -70 °C and then thawed. Finally, 100 µL of SYBR^©GreenI in lysis buffer (0.2 µL/mL) was added per well and shaken for 5 minutes or until no precipitated erythrocytes were observed. The plate was left to stand in the dark for 1 h at room temperature. Fluorescence intensity (FI) for each well was measured. The background of the nonparasitized erythrocytes was subtracted from each well tested.

Molecules are shown by their SMILES. Structures can show the parent of a compound that is named as a salt. Where two headings read alike, the source gives them in different places.

The record followed here is PMC6255377, “New 1-Aryl-3-Substituted Propanol Derivatives as Antimalarial Agents” (Molecules, 2009).

As a reminder, the melting point is the temperature of the solid-liquid transition. In turn, `O=C(CCN1CCCN(c2ccc([N+](=O)[O-])cc2)CC1)c1csc2ccccc12` (as salt: hydrochloride) [Compound 9, 1-(benzo[b]thiophen-3-yl)-3-[4-(4-nitrophenyl)-1,4-diazepan-1-yl]propan-1-one] displayed a melting point of 121 to 123 °C.
Still for that read-out and setting: under `COc1cccc(N2CCN(CCC(O)c3csc4ccc(F)cc34)CC2)c1` (centres unmarked) (as salt: hydrochloride) [Compound 16, 1-(5-fluorobenzo[b]thiophen-3-yl)-3-[4-(3-methoxyphenyl)piperazin-1-yl]propan-1-ol] stands 135 to 137 °C; under `COc1ccccc1N1CCN(CCC(O)c2ccc3cc(C)ccc3c2)CC1` (centres unmarked) (as salt: hydrochloride) [Compound 44, 1-(6-methylnapth-2-yl)-3-[4-(2-methoxyphenyl)piperazin-1-yl]propan-1-ol], 116 to 117 °C; under `O=[N+]([O-])c1ccc([C@@]2(NCCC(O)c3ccc4ccccc4c3)CCNC2)c(C(F)(F)F)c1` (stereo partly drawn) (as salt: hydrochloride) [Compound 45, 1-(2-naphthyl)-3-[3-(4-nitro-2-trifluoromethylphenyl)-(S)-pyrrolidin-3-ylamino]-propan-1-ol], 181 to 183 °C.
A word on the IC50: it is the concentration that gives 50% inhibition. `O=C(CCN1CCN(c2cccc3ccccc23)CC1)c1csc2ccc(F)cc12` [Compound 1]: in series [1] (Table 1), the IC50 is more than 20 µM.
On the same count and under the same terms, in the case of `COc1ccccc1N1CCN(CCC(=O)c2csc3ccc(F)cc23)CC1` [Compound 2] it was more than 20 µM.
Still for that read-out and setting: in the case of `COc1ccccc1N1CCN(CCC(=O)c2csc3ccccc23)CC1` [Compound 3] it was more than 20 µM; in that of `O=C(CCN1CCN(c2cccc3cccnc23)CC1)c1csc2ccc(F)cc12` [Compound 4], more than 20 µM.
Consider `Cc1ccc2cccc(N3CCN(CCC(=O)c4csc5ccccc45)CC3)c2n1` [Compound 5], for which the IC50 in series [1] (Table 1) was more than 20 µM.
`O=C(CCN1CCN(c2ccc([N+](=O)[O-])cc2C(F)(F)F)CC1)c1csc2ccccc12` [Compound 6, 1-(Benzo[b]thiophen-3-yl)-3-[4-(4-nitro-2-trifluoromethylphenyl)piperazin-1-yl]propan-1-ona] registered a melting point of 140 to 141 °C. Further, the IC50 in series [1] (Table 1) was more than 20 µM.
On the same counts, the results for `O=C(CCN1CC[C@@H](Nc2ccc([N+](=O)[O-])cc2C(F)(F)F)C1)c1csc2ccccc12` [Compound 7, 1-(Benzo[b]thiophen-3-yl)-3-[3-(4-nitro-2-trifluoromethylphenylamino)-(R)-pyrrolidin-1-yl] propan-1-one] are 98 to 100 °C and more than 20 µM.
On the same counts, the results for `O=C(CCNC1CCN(c2ccc([N+](=O)[O-])cc2)CC1)c1csc2ccccc12` [Compound 8, 1-(Benzo[b]thiophen-3-yl)-3-[1-(4-nitrophenyl)piperidin-4-ylamino]propan-1-one] are 144 to 145 °C and more than 20 µM.
Take `O=C(CCN1CCCN(c2ccc([N+](=O)[O-])cc2)CC1)c1csc2ccccc12` [Compound 9, 1-(benzo[b]thiophen-3-yl)-3-[4-(4-nitrophenyl)-1,4-diazepan-1-yl]propan-1-one]: the IC50 in series [1] (Table 1) is more than 20 µM.
`O=C(CCN1CCN(c2cnc3ccccc3n2)CC1)c1csc2ccccc12` [Compound 10, 1-(Benzo[b]thiophen-3-yl)-3-[4-(quinoxalin-2-yl)piperazin-1-yl]propan-1-one] yielded a melting point of 145 to 146 °C. The IC50 in series [1] (Table 1) is more than 20 µM.
Turning to `OC(CCN1CCN(c2cccc3ccccc23)CC1)c1csc2ccccc12` (centres unmarked) [Compound 11], the IC50 in series [1] (Table 1) stood at 6.13 µM.
The same measure, in the same setting: under `COc1ccccc1N1CCN(CCC(O)c2csc3ccccc23)CC1` (centres unmarked) [Compound 13] stands 1.07 µM; under `Oc1ccccc1N1CCN(CCC(O)c2csc3ccccc23)CC1` (centres unmarked) [Compound 14], 13.7 µM; under `COc1cccc(N2CCN(CCC(O)c3csc4ccc(F)cc34)CC2)c1` (centres unmarked) [Compound 16, 1-(5-fluorobenzo[b]thiophen-3-yl)-3-[4-(3-methoxyphenyl)piperazin-1-yl]propan-1-ol], 1.67 µM.
On the same count and under the same terms, under `OC(CCN1CCN(c2cccc3[nH]ccc23)CC1)c1csc2ccccc12` (centres unmarked) [Compound 17] stands 6.99 µM; under `OC(CCN1CCN(c2cccc3[nH]ccc23)CC1)c1csc2ccc(F)cc12` (centres unmarked) [Compound 18], 3.81 µM.
As for `OC(CCN1CCN(c2ccc(Cl)cc2)CC1)c1csc2ccccc12` (centres unmarked) [Compound 19], the IC50 in series [1] (Table 1) stood at 5.65 µM.
On the same count and under the same terms, under `OC(CCN1CCN(c2cccc3cccnc23)CC1)c1csc2ccccc12` (centres unmarked) [Compound 20] stands 2.15 µM; under `OC(CCN1CCN(c2cccc3cccnc23)CC1)c1csc2ccc(F)cc12` (centres unmarked) [Compound 21], 0.79 µM; under `Cc1ccc2cccc(N3CCN(CCC(O)c4csc5ccccc45)CC3)c2n1` (centres unmarked) [Compound 22], 0.66 µM.
The same measure, in the same setting: under `OC(CCN1CCN(c2cccc3ncccc23)CC1)c1csc2ccccc12` (centres unmarked) [Compound 24] stands 1.3 µM; under `OC(CCN1CCN(c2ccc3ccccc3n2)CC1)c1csc2ccccc12` (centres unmarked) [Compound 25], 2.22 µM; under `OC(CCN1CCN(c2cccc3c2OCCO3)CC1)c1csc2ccccc12` (centres unmarked) [Compound 26], 3.56 µM.
On the same count and under the same terms, under `OC(CCN1CCN(c2cccc3c2OCCO3)CC1)c1csc2ccc(F)cc12` (centres unmarked) [Compound 27] stands 0.9 µM.
Compound `O=[N+]([O-])c1ccc(N2CCN(CCC(O)c3csc4ccccc34)CC2)c(C(F)(F)F)c1` (centres unmarked) [Compound 28, 1-(Benzo[b]thiophen-3-yl)-3-[4-(4-nitro-2-trifluoromethylphenyl)piperazin-1-yl]propan-1-ol] displayed a melting point of 154 to 155 °C. In series [1] (Table 1), the IC50 came to 0.68 µM.
On the same counts, the results for `O=[N+]([O-])c1ccc(N[C@@H]2CCN(CCC(O)c3csc4ccccc34)C2)c(C(F)(F)F)c1` (stereo partly drawn) [Compound 29, 1-(Benzo[b]thiophen-3-yl)-3-[3-(4-nitro-2-trifluoromethylphenylamino)-(R)-pyrrolidin-1-yl]propan-1-ol] are 48 to 50 °C and 2.99 µM.
Consider `OC(CCN1CCN(c2ccc(Cl)cc2)CC1)c1ccsc1` (centres unmarked) [Compound 36], for which the IC50 in series [1] (Table 2) is more than 20 µM.
Same read-out and setting: in the case of `OC(CCN1CCN(c2ccc(Cl)cc2)CC1)c1ccccc1` (centres unmarked) [Compound 37] it was 13 µM.
`COc1ccccc1N1CCN(CCC(O)c2ccccc2)CC1` (centres unmarked) [Compound 39]: the IC50 in series [1] (Table 2) was more than 20 µM.
For `COc1ccccc1N1CCN(CCC(O)c2ccc3ccccc3c2)CC1` (centres unmarked) [Compound 42], in series [1] (Table 2), the IC50 was 0.83 µM.
Still for that read-out and setting: in the case of `COc1ccccc1N1CCN(CCC(O)c2ccc(C)cc2C)CC1` (centres unmarked) [Compound 43] it was 16.9 µM; in that of `COc1ccccc1N1CCN(CCC(O)c2ccc3cc(C)ccc3c2)CC1` (centres unmarked) [Compound 44, 1-(6-methylnapth-2-yl)-3-[4-(2-methoxyphenyl)piperazin-1-yl]propan-1-ol], 9.64 µM; in that of `O=[N+]([O-])c1ccc([C@@]2(NCCC(O)c3ccc4ccccc4c3)CCNC2)c(C(F)(F)F)c1` (stereo partly drawn) [Compound 45, 1-(2-naphthyl)-3-[3-(4-nitro-2-trifluoromethylphenyl)-(S)-pyrrolidin-3-ylamino]-propan-1-ol], 9.1 µM.
On the same count and under the same terms, in the case of `Cc1ccc(C(O)CCN2CCN(c3ccccc3O)CC2)c(C)c1` (centres unmarked) [Compound 46] it was 18.2 µM.
